The results in this text go back to US20070122422A1, “Sodium-independent small neutral amino acid transporter transporting L- and D- amino acids” (Japan Science and Technology Corporation, priority 2000, published 2007).

What all share (type): cell-based
Assay [1] concerns the target T1, intracellular substrate-binding site of asc-1 of mouse (Mus musculus, UniProt P63115).
T1 construct: expressed in transfected cells; host or cells: Xenopus oocytes injected with cRNA
T1 sequence (P63115 1-530): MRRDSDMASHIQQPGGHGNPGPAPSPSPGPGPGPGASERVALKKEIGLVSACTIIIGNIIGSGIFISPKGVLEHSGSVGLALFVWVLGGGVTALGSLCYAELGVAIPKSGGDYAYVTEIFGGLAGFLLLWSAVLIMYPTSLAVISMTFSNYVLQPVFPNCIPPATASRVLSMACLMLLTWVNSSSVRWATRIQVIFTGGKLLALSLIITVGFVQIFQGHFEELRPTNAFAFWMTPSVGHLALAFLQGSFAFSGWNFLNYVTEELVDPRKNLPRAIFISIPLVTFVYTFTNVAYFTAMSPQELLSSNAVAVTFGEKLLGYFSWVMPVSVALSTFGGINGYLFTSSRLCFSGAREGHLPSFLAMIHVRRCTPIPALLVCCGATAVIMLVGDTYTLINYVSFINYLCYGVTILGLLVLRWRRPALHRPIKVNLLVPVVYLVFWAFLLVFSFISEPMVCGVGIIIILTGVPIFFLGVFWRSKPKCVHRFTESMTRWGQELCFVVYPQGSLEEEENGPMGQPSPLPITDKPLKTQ
T1 sequence (P10852 1-526 partner): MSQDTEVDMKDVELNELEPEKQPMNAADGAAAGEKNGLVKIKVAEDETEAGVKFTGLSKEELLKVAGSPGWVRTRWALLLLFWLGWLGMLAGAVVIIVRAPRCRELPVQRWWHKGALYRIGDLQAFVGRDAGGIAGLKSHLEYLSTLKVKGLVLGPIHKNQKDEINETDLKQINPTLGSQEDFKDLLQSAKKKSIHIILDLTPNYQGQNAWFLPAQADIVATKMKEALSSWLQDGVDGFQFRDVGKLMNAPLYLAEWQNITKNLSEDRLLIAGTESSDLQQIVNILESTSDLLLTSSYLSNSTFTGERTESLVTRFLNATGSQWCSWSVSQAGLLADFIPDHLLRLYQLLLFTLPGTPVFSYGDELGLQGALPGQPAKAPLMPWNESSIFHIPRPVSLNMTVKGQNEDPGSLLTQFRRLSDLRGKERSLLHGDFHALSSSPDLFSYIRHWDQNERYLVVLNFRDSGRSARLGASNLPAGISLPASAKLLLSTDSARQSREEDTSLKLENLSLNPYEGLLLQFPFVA
Nature of the assay: Release of injected 14C-amino acid from oocytes co-expressing asc-1 and 4F2hc on extracellular alanine. As to conditions: alanine 100 μM added to Na+-free uptake solution. How it is done: In oocytes into which cRNA of asc-1 gene and cRNA of 4F2hc gene of mouse were injected together, release of preloaded ^14C-amino acid mediated by asc-1 was checked whereby the substrate selectivity of intracellular substrate-binding site of asc-1 was checked.
(§1) ^14C-Amino acid (˜3nCi) of 100 μM in an amount of 100 nl was injected into the oocytes into which both asc-1 gene cRNA and 4F2hc gene cRNA of mouse were injected together, washed with an ice-cooled Na^+-free uptake solution containing no alanine and transferred to a Na^+-free uptake solution to which alanine (100 μM) was added or not added at room temperature (18° C.-22° C.) and the amount of ^14C-amino acid released outside the cells was measured.
Black bars in FIG. 21 show the case where alanine was added to a Na^+-free uptake solution while bars with oblique lines show the case where alanine was not added to a Na^+-free uptake solution.

The target of assay [2] is T2, asc-1 of mouse (co-expressed with 4F2hc of mouse) (Mus musculus, UniProt P63115).
T2 construct: expressed in transfected cells; host or cells: Xenopus oocytes injected with cRNA
T2 sequence (P63115 1-530): T1 sequence (P63115 1-530)
T2 sequence (P10852 1-526 partner): T1 sequence (P10852 1-526 partner)
Nature of the assay: Michaelis-Menten kinetic test of substrate incorporation by Xenopus oocytes co-expressing asc-1 and 4F2hc. As to conditions: ratio to the Vmax value for alanine (defined as 1.00). As to the method: (§2) Into oocytes were injected 12 ng of asc-1 gene cRNA of mouse, 13 ng of 4F2hc gene cRNA of mouse or 12 ng asc-1 gene cRNA of mouse/13 ng of 4F2hc gene cRNA of mouse to express followed by incubating for 3 days. […] Thus, the oocytes were allowed to stand for 30 minutes in a Na^+-free uptake solution [100 mM choline chloride, 2 mM potassium chloride, 1.8 mM calcium chloride, 1 mM magnesium chloride, 5 mM HEPES; pH 7.4] containing ^14C-alanine (100 μM) as a substrate and the rate of the substrate incorporated into the cells was measured by way of counting the radioactivity incorporated thereinto.
A Michaelis-Menten kinetic test was carried out for a sodium-independent small neutral amino acid transporter asc-1 which transports L- and D-amino acids. By checking the changes in the rate of incorporation of alanine due to the difference in concentration of the alanine substrate, the Michaelis-Menten kinetic test of asc-1 was carried out.
An experiment for the incorporation of alanine was carried out according to the method mentioned in the above Example 2(1) using the oocytes into which both asc-1 gene cRNA of mouse and 4F2hc gene cRNA of mouse were injected.
With regard to amino acids other than alanine which were used as substrates, a Michaelis-Menten kinetic was carried out as well in the same manner whereupon Km values and Vmax values were calculated. Each Vmax value in Table 1 was shown in terms of the ratio when the Vmax value of alanine was defined as 1.00.

The target in assay [3] is T2, asc-1 of mouse (co-expressed with 4F2hc of mouse). Nature of the assay: Release of preloaded 14C-alanine from oocytes co-expressing asc-1 and 4F2hc on extracellular addition of compound. As to conditions: 100 μM compound added to Na+-free uptake solution; room temperature. How it is done:
as §1, with “Release of a preloaded ^14C-alanine mediated by asc-1 was checked in the oocytes into which both asc-1 gene cRNA and 4F2hc gene cRNA of mouse were injected together. ^14C-Alanine (−3nCi)” for “^14C-Amino acid (˜3nCi)”, “^14C-alanine” for “^14C-amino acid”
In oocytes into which cRNA of asc-1 gene and cRNA of 4F2hc gene of mouse were injected together, release of preloaded ^14C-alanine mediated by asc-1 was investigated whereupon it was checked whether the compound which inhibited the incorporation of ^14C-alanine mediated by asc-1 was a substrate of asc-1.
^14C-Alanine (−3nCi) of 100 μM in an amount of 100 nl was injected into the oocytes into which both asc-1 gene cRNA and 4F2hc gene cRNA of mouse were injected together, washed with an ice-cooled Na^+-free uptake solution containing no alanine and transferred to a Na^+-free uptake solution to which amino acid or amino acid analog (100 μM) was added or not added at room temperature (18° C.-22° C.) and the amount of ^14C-alanine released outside the cells was measured.
Black bars in FIG. 18 are the case where there were used oocytes into which cRNA of mouse asc-1 gene and cRNA of mouse 4F2hc gene were injected while white bars are the case where there were used oocytes into which water was injected instead of cRNA as a control.

Assay [4] has the same target. Nature of the assay: Inhibition of 14C-alanine incorporation by added amino acids and analogs in oocytes co-expressing asc-1 and 4F2hc. As to conditions: 14C-alanine 50 μM; 5 mM non-labeled compound; Na+-free uptake solution. As to the method:
as §2
In an experiment of incorporation of alanine by oocytes into which both asc-1 gene cRNA of mouse and 4F2hc gene cRNA of mouse were injected, influence of addition of various amino acid and analogs thereof was investigated.
In an experiment of incorporation of alanine, a method according to that mentioned in the above Example 2(1) was carried out using oocytes into which both asc-1 gene cRNA of mouse and 4F2hc gene cRNA of mouse were injected. Here, a Na^+-free uptake solution was used and incorporation of ^14C-alanine (50 μM) was measured in the presence and absence of 5 mM of various compounds (non-labeled).

The target is the same in assay [5]. Nature of the assay: Incorporation of radiolabeled amino acids and analogs by oocytes co-expressing asc-1 and 4F2hc. As to the method:
Incorporation of alanine when asc-1 gene cRNA of mouse was solely expressed in oocytes of Xenopus and when asc-1 gene cRNA of mouse and 4F2hc gene cRNA of mouse were expressed in oocytes of Xenopus together was compared.
as §2
In an experiment of incorporation of alanine by oocytes into which both asc-1 gene cRNA and 4F2hc gene cRNA of mouse were injected together, influence of the salt added to the medium was investigated.
The experiment of incorporation of alanine was carried out in accordance with the method mentioned in the above Example 2(1) using oocytes into which both asc-1 gene cRNA and 4F2hc gene cRNA of mouse were injected together. When the influence of sodium ion was checked however, a standard uptake solution (where 100 mM choline chloride was substituted with 100 mM sodium chloride) was used in place of the Na^+-free uptake solution as the uptake solution. When the influence of chlorine ion was checked, a gluconic acid uptake solution (where 100 mM sodium chloride was substituted with 100 mM sodium gluconate) was used in place of the standard uptake solution.
Incorporation by asc-1 was investigated using various amino acids and analogs thereof as substrates. Experiment for incorporation of various amino acids and analogs thereof was carried out according to the method mentioned in the above Example 2(1) using oocytes into which asc-1 gene cRNA of mouse and 4F2hc gene cRNA of mouse were injected together. With regard to the substrates however, various compounds labeled with radioactivity were used in place of ^14C-alanine.
Influence of pH was checked in an experiment for incorporation of alanine by oocytes into which both asc-1 gene cRNA and 4F2hc gene cRNA of mouse were injected together. With regard to an experiment for incorporation of alanine, the method according to that mentioned in the above Example 2 (1) was carried out using oocytes into which both asc-1 gene cRNA of mouse and 4F2hc gene cRNA of mouse were injected together.

With `C[C@@H](O)[C@H](N)C(=O)O` [L-Threonine], the “release of injected 14C-labeled amino acid by extracellular alanine” value (“release … by extracellular alanine” for short) in assay [1] is “increase in release”. Also, in assay [2], the Vmax was 0.86. In addition, in assay [3], the “increase in the release of preloaded 14C-alanine” value was “high increase”.

On to `N[C@@H](CS)C(=O)O` [L-Cysteine], for which, in assay [1], the “release … by extracellular alanine” value is given as “increase in release”. In assay [4], the “inhibition of incorporation of 14C-alanine mediated by asc-1” value is “particularly strongly inhibited”. Also, the “incorporation into the oocytes as substrate” value in assay [5] (radiolabeled substrate, oocytes expressing both asc-1 and 4F2hc, Na+-free uptake solution) was “big incorporation”. Also, the “transport by asc-1 (affinity in words)” value in assay [5] (summary statement, asc-1 co-existing with 4F2hc) is recorded as “highly affinitive”. In addition, in assay [2], the Vmax is recorded as 0.82.

`NCC(=O)O` [Glycine]: in assay [1], the “release … by extracellular alanine” value is recorded as “increase in release”. Also, the Vmax in assay [2] worked out at 0.89. Besides, the “increase in the release of preloaded 14C-alanine” value in assay [3] is listed as “high increase”.
